In the supplement of paper PMC10307832:

Tests used:
Test in all cases: relative viability (nuclei count vs DMSO), 5 days (fraction); higher = more cells survive
YM155 + Crizotinib = compound: COCC[n+]1c2c(n(Cc3cnccn3)c1C)C(=O)c1ccccc1C2=O [YM155] + C[C@@H](Oc1cc(-c2cnn(C3CCNCC3)c2)cnc1N)c1c(Cl)ccc(F)c1Cl [Crizotinib] (partner 1 µM)
Procedure, shortened: (§1)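 Dosing by pin tool came one day after lung cancer cell lines were seeded in 1536-well plates, using either one drug or a fixed anchor-drug dose plus five library-drug doses (not always all listed) in √10 steps. After 5 days, nuclei were counted on 4× images. Relative viability is treated-well nuclei count divided by vehicle-well nuclei count, and values are medians of duplicate plates.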

YM155 + OSI-027 = compound: COCC[n+]1c2c(n(Cc3cnccn3)c1C)C(=O)c1ccccc1C2=O [YM155] + COc1cccc2cc(-c3nc([C@H]4CC[C@H](C(=O)O)CC4)n4ncnc(N)c34)[nH]c12 [OSI-027] (partner 0.5 µM)
Procedure, shortened: as §1

Quizartinib + Olaparib = compound: CC(C)(C)c1cc(NC(=O)Nc2ccc(-c3cn4c(n3)sc3cc(OCCN5CCOCC5)ccc34)cc2)no1 [Quizartinib] + O=C(c1cc(Cc2n[nH]c(=O)c3ccccc23)ccc1F)N1CCN(C(=O)C2CC2)CC1 [Olaparib] (partner 8 µM)
Procedure, shortened: as §1

YM155 + Trametinib = compound: COCC[n+]1c2c(n(Cc3cnccn3)c1C)C(=O)c1ccccc1C2=O [YM155] + CC(=O)Nc1cccc(-n2c(=O)n(C3CC3)c(=O)c3c(Nc4ccc(I)cc4F)n(C)c(=O)c(C)c32)c1 [Trametinib] (partner 0.02 µM)
Procedure, shortened: as §1

Row | Cell Line | relative viability (YM155 + Crizotinib; first compound 0.002 µM) | relative viability (YM155 + Crizotinib; first compound 0.006325 µM) | relative viability (YM155 + Crizotinib; first compound 0.02 µM) | relative viability (YM155 + Crizotinib; first compound 0.06325 µM) | relative viability (YM155 + OSI-027; first compound 0.002 µM) | relative viability (YM155 + OSI-027; first compound 0.006325 µM) | relative viability (YM155 + OSI-027; first compound 0.02 µM) | relative viability (YM155 + OSI-027; first compound 0.06325 µM) | relative viability (Quizartinib + Olaparib; first compound 0.003162 µM) | relative viability (Quizartinib + Olaparib; first compound 0.01 µM) | relative viability (Quizartinib + Olaparib; first compound 0.03162 µM) | relative viability (Quizartinib + Olaparib; first compound 0.1 µM) | relative viability (YM155 + Trametinib; first compound 0.002 µM) | relative viability (YM155 + Trametinib; first compound 0.006325 µM) | relative viability (YM155 + Trametinib; first compound 0.02 µM) | relative viability (YM155 + Trametinib; first compound 0.06325 µM) | relative viability (Quizartinib + Olaparib; first compound 0.001 µM)
1 | NCI-H460 | 1.01 | 0.803 | 0.936 | 0.84 | 0.584 | 0.769 | 0.757 | 0.694 | 0.377 | 0.573 | 0.336 | 0.429 | 0.081 | 0.147 | 0.174 | 0.14 | 
2 | NCI-H520 | 0.755 | 0.725 | 0.835 | 0.66 | 0.244 | 0.242 | 0.29 | 0.326 | 0.308 | 0.367 | 0.352 | 0.29 | 0.735 | 0.599 | 0.75 | 0.741 | 
3 | NCI-H596 |  | 0.965 | 0.997 | 0.974 | 0.735 | 0.806 | 0.743 | 0.85 | 0.636 | 0.732 | 0.658 | 0.717 | 0.783 | 0.784 | 0.744 | 0.859 | 0.728
4 | NCI-H647 | 1.08 | 1.31 | 1.12 | 0.755 | 0.812 | 0.736 | 0.762 | 0.483 | 0.507 | 0.669 | 0.499 | 0.585 | 0.342 | 0.456 | 0.463 | 0.472 | 0.622
5 | NCI-H650 | 0.835 | 0.655 | 0.747 | 0.52 | 0.503 | 0.542 | 0.572 | 0.52 | 0.334 | 0.44 | 0.4 | 0.474 | 1.05 | 0.875 | 0.967 | 1.04 | 0.373
6 | NCI-H661 | 1.01 | 0.942 | 1.05 | 0.798 | 0.703 | 0.722 | 0.708 | 0.308 | 0.712 | 0.751 | 0.733 | 0.723 | 0.496 | 0.558 | 0.598 | 0.525 | 0.727
7 | NCI-H727 | 0.828 | 0.821 | 0.868 | 0.738 | 0.473 | 0.612 | 0.703 | 0.595 | 0.678 | 0.843 | 0.708 | 0.769 | 0.412 | 0.396 | 0.391 | 0.411 | 0.66
8 | NCI-H838 | 0.825 | 0.909 | 0.911 | 0.297 | 0.361 | 0.406 | 0.421 | 0.438 | 0.683 | 0.77 | 0.678 | 0.361 | 0.461 | 0.505 | 0.508 | 0.372 | 0.641
9 | NCI-H1355 | 0.988 | 1.11 | 1.03 | 1.01 | 0.386 | 0.394 | 0.454 | 0.47 | 0.737 | 0.761 | 0.748 | 0.679 | 0.509 | 0.454 | 0.473 | 0.406 | 0.659
10 | NCI-H1437 | 0.878 | 0.9 | 0.902 | 0.681 | 0.838 | 0.844 | 0.871 | 0.783 | 0.587 | 0.627 | 0.584 | 0.468 | 0.42 | 0.564 | 0.534 | 0.469 | 0.613
11 | NCI-H1650 | 0.924 | 0.974 | 0.717 | 0.286 | 0.677 | 0.783 | 0.594 | 0.613 | 0.816 | 0.607 |  | 0.737 | 0.478 | 0.581 | 0.458 | 0.355 | 0.793
12 | NCI-H1651 | 0.956 | 0.806 | 0.876 | 0.894 | 0.685 | 0.774 | 0.88 | 0.585 | 0.174 | 0.192 | 0.186 | 0.177 | 0.863 | 0.755 | 0.867 | 0.962 | 0.163
13 | NCI-H1666 | 1.05 |  | 1.01 | 0.879 | 0.767 | 0.911 | 0.859 | 0.841 | 0.713 | 0.662 | 0.678 | 0.853 | 0.865 | 0.896 | 0.874 | 0.903 | 0.704
14 | NCI-H1734 | 0.646 | 0.662 | 0.766 | 0.675 | 0.599 | 0.586 | 0.616 | 0.684 | 0.557 | 0.625 | 0.605 | 0.642 | 0.672 | 0.658 | 0.724 | 0.741 | 0.587
15 | NCI-H1755 | 0.882 | 0.833 | 0.973 | 0.859 | 0.716 | 0.753 | 0.747 | 0.705 | 0.809 | 0.946 | 0.948 | 0.855 | 0.764 | 0.752 | 0.751 | 0.755 | 0.832
16 | NCI-H1792 | 1 | 1.05 | 0.994 | 0.984 | 0.743 | 0.889 | 0.677 | 0.83 | 0.381 | 0.54 | 0.483 | 0.312 | 0.498 | 0.366 | 0.468 | 0.599 | 0.443
